Source: patent US8895717B2, “Delivery of siRNA by neutral lipid compositions” (The Board of Regents of the University of Texas System, priority 2005, dated 2014)
d = 2'-deoxy (DNA); r = 2'-OH (RNA)

Columns and labels:
[1] = system: SKOV3-TR and HeyA8-MDR cells; assay: TUNEL apoptosis assay, taxane-resistant cells; type: cell-based, human; settings: FAK siRNA with or without docetaxel
Method: (§1) Terminal deoxynucleotidyl transferase-mediated nick end labeling-positive cells were detected using Dead End Fluorometric terminal deoxynucleotidyl transferase-mediated nick end labeling system (APO-DIRECT, BD Biosciences/PharMingen, San Diego, Calif.) according to the manufacturer's instructions. Briefly, ovarian cancer cells in culture were treated with varying concentrations of docetaxel and harvested after 12, 24, 48, or 96 hours. Cells were fixed with 4% paraformaldehyde solution for 25 minutes on ice. Intracellular DNA fragments were then labeled by exposing cells to fluorescein-12-dUTP, treated with propidium iodide and RNaseA solution, and analyzed by flow cytometry (EPICS XL, Beckman Coulter, Miami, Fla.). The percentages of apoptotic cells were averaged over three consecutive experiments.

SKOV3-TR cells = assay: Cytotoxicity assay (MTT), SKOV3-TR; type: cell-based, human; settings: SKOV3-TR; siRNA 48 hours before docetaxel
Method: (§2) The medium was exchanged after 48 hours with increasing concentrations of docetaxel (obtained from Aventis Pharma, Bridgewater, N.J.) dissolved in ethanol (final concentration range, 0.1-10,000 nmol/L prepared in medium) or cisplatin (purchased from LKT Laboratories, Inc., St. Paul, Minn.) dissolved in water. After a 96-hour incubation, 50 μL of 0.15% 3-(4,5-dimethylthiazol-2-yl)-2,5-diphenyltetrazolium bromide was added to each well and incubated for 2 hours. The supernatant was removed, and cells were dissolved in 100 μL DMSO. The absorbance at 570 nm was recorded using a FALCON microplate reader (Becton Dickinson Labware, Bedford, Mass.), and cell survival expressed as a percent increase or decrease above control conditions, after subtracting blank A570 readings. The IC50 concentration was determined by finding the A570 reading midpoint between maximal and minimal readings and finding the chemotherapy concentration that intersects the growth curve at that A570 reading.

HeyA8-MDR cells = assay: Cytotoxicity assay (MTT), HeyA8-MDR; type: cell-based, human; settings: HeyA8-MDR; siRNA 48 hours before docetaxel
Method: as §2

SKOV3 cells = assay: TUNEL apoptosis assay, SKOV3; type: cell-based, human; settings: sensitive and resistant cell lines
Method: as §1, with “Briefly, ovarian cancer cells in culture were treated with varying concentrations of docetaxel and harvested after 12, 24, 48, or 96 hours.” left out

HeyA8 cells = assay: Chronic restraint stress, HeyA8 orthotopic tumor growth; type: in vivo, nude mice; settings: siRNA in DOPC three times per week
Source text: Mice habituated to vivarium conditions for 1 week before the initiation of stress procedures. A restraint-stress procedure was used based on previous studies (Sheridan et al., 1991), substituting a novel Mouse Restraint System (FIG. 15A) for conical centrifuge tubes. In this system, up to 10 mice are placed in individual slots, and each slot can be adjusted to restrain the animal for a desired length of time. In the present study, restraint stress began between 8 a.m. and 10 a.m., and lasted for 2-6 hours for up to 21 days. […] Immunohistochemistry and H&E staining procedures were carried out on formalin-fixed paraffin-embedded tumors. […] Pumps were inserted on the nape of the neck 7 days prior to initiation of restraint stress for 2 hours daily. Mice were anesthetized with inhaled methoxyflurane (Medical Developments Australia Pty. Ltd, Melbourne, Australia), and implanted with Alzet pumps containing PBS or S-propranolol hydrochloride (Sigma Co., St. Louis, Mo.) diluted in PBS at a dose of 2 mg/kg/day, which allows for chronic continuous receptor blockade, for 28 days (Aarons and Molinoff, 1982; Exton et al., 2002).

| Substance | apoptosis [1] | fold increase in sensitivity to docetaxel (SKOV3-TR cells) [fold] | fold increase in sensitivity to docetaxel (HeyA8-MDR cells) [fold] | apoptosis in combination with docetaxel (SKOV3 cells) | effect on stress induced increase in tumor weight, nodules and metastasis (HeyA8 cells) |
| --- | --- | --- | --- | --- | --- |
| FAK siRNA: sense r(CCACCUGGGCCAGUAUUAU)d(TT), antisense r(AUAAUACUGGCCCAGGUGG)d(TT); for in vivo delivery incorporated into DOPC (sense CCACCUGGGCCAGUAUUAUTT; antisense AUAAUACUGGCCCAGGUGGTT; sugars from the 5' end r19 d2, backbone not given here) | neither agent alone induced much apoptosis | 4.8 | 5.5 | – | – |
| control siRNA: sense r(UUUUCCGAACGUGUCACGU)dTT, antisense r(ACGUGACACGUUCGGAGAA)dTT, no homology with human mRNA; in vivo in DOPC (sense UUUUCCGAACGUGUCACGUTT; antisense ACGUGACACGUUCGGAGAATT; sugars from the 5' end r19 d2, backbone not given here) | – | – | – | did not enhance apoptosis in combination with docetaxel | failed to block stress-induced enhancement of tumor weight and nodules |
